Read-outs that look alike come from different tables or passages of the source. Some results are limits rather than exact numbers.

One assay concerns the target T1, Hsp70 (Homo sapiens, UniProt P0DMV8).
T1 construct: purchased Enzo Life science ALX-201-214-C025
Kind of assay: Hsp70 ATPase activity assay (ADP Hunter Plus). The assay is classed as biochemical. To be noted: for IC50: ADP Hunter Plus assay; for selectivity HSP90 over HSP70: ratio of IC50 HSP70 / HSP90, ADP fluorescence assay. From the text:
The following materials were used for the biological evaluation: The PET-28a HSP90 expression vector was constructed. The Ni^2+-nitrilo-triacetic acid (NTA) agarose was purchased from General Electric (USA). […] Isopropyl-1-thio-d-galactopyranoside (IPTG) was purchased from Sigma (St. Lousi. MO). Antibodies of β-Actin, Hsp70, Hsp90, c-Raf, Akt, Src, Phospho-Src, ERK and Her-2 were purchased from Cell Signaling Technology (Danvers, MA). Anti-p-Akt(S473) was purchased from Signalway Antibody (Baltimore, MD). HIF-1α antibody was purchased from R&D systems. The stock solution of Hsp90 was prepared in a 20 mM Tris-Cl buffer with a pH 7.4, and concentration was fixed at 5.0 μM. […] The screened out compounds were purchased from SPECS and dissolved in DMSO (Sigma, St. Louis, MO) to make a final concentration of 10^−2 mol/L and were stored at −20°C. […] The water used in the experiments was thrice-distilled and all other materials were of analytical reagent grade.
Hsp70 ATPase activity was measured using Discover RX ADP Hunter^TM Plus Assay kit assay as descripted in the manufacturer's instructions. Breifly, Hsp70 (3 μM) was incubated with 1 mM ATP in 100 mM Tris pH 7.4 at 37°C for 3 h in the presence or absence of various concentrations of test compounds. ADP generation was measured using Varioskan multimode microplate spectrophotometer (540 nm excitation and 620 nm emission). Fluorescence intensity values measured for Hsp70 without any testing compound was assumed as 100% of enzyme activity. The background reaction rate was measured in a reaction lacking enzyme or substrate and subtracted from the experimental rates.

In assay [1] the target is T2, Hsp90 (Homo sapiens, UniProt P07900).
T2 construct: The region encoding full-length Hsp90 was subcloned into pET28a; inferred from the pET28a vector and Ni-NTA purification; made in house; host or cells: E. coli
Kind of assay: Malachite green assay of Hsp90 ATPase activity. To be noted: for IC50: by malachite green assay; for inhibition at 40 µM: read-out: Inhibition rate (% in 40 μM). In kind it is biochemical. The procedure:
The region encoding full-length Hsp90 was subcloned into pET28a. Protein expression in E. coli cells were induced with 0.5 mM IPTG. Cells were harvested after 20h of growth at 16°C and then disrupted by sonication. The soluble lysate was clarified by centrifugation and applied to a Ni^2+-nitrilo-triacetic acid (NTA) agarose column in a buffer (50 mM Tris-Cl, 300 mM NaCl, 10 mM Imidazole, 10% [v/v] Glycerol, 10 mM PMSF, 10 mM DTT). Hsp90 Protein was eluted with a linear gradient of 20–1000 mM imidazole. Hsp90 was identified by SDS-PAGE, and the high concentrated fraction was dialyzed against ATPase buffer (20 mM Tris-Cl, pH 7.5; 6 mM MgCl2; 20 mM KCl) and then aliquoted, frozen in liquid nitrogen, stored at −80°C.
The test compounds were diluted from mother plates (10 mM in 100% (v/v) DMSO) into daughter plates (200 μM in 2.0% (v/v) DMSO); 5 μL of test compound solution was added to each well (equivalent to a final concentration of 40 μM) of the 96-well assay plate. The first and last rows of the 96-well plate contained the appropriate concentration of DMSO were used as blank control. ATP was dissolved in the assay buffer to give a stock concentration of 2.5 mM and stored at room temperature. A 10 μL aliquot of ATP solution was added to each well to give a final assay concentration of 1 mM. Before the usage, Hsp90 protein was thawed on ice and suspended in chilled assay buffer to a stock concentration of 0.45 mg/mL, and the solution was kept on ice. The incubation was started by adding 10 μL of the stock Hsp90 to each well (except for the background wells which received 10 μL of assay buffer), giving a final assay volume of 25 μL. The plates were shaken for approximately 2 min and incubated for 3 h at 37°C.
The assay procedures were based on the literatures [33]–[35]. […] The reagent is initially dark brown, but on standing for ∼2 h at room temperature changes to a golden yellow and is ready for use. The assay buffer was 100 mM Tris–HCl, 20 mM KCl, 6 mM MgCl2, pH 7.4.
To stop the ATPase reactions, 80 μL of the malachite green reagent was added to each well.

For assay [2], the target named is T2, Hsp90. Kind of assay: ATP hydrolysis inhibition, ADP Hunter Plus (ADP fluorescence) assay. In kind it is biochemical. To be noted: by ADP fluorescence assay. The procedure:
The first and last rows of the 96-well plate contained the appropriate concentration of DMSO were used as blank control. ATP was dissolved in the assay buffer to give a stock concentration of 2.5 mM and stored at room temperature. A 10 μL aliquot of ATP solution was added to each well to give a final assay concentration of 1 mM. Before the usage, Hsp90 protein was thawed on ice and suspended in chilled assay buffer to a stock concentration of 0.45 mg/mL, and the solution was kept on ice. […] The plates were shaken for approximately 2 min and incubated for 3 h at 37°C. The Discover RX ADP Hunter^TM Plus Assay kit (Discoverx, Fremont, CA) was used following the manufacturer's instructions. ATPase reactions were carried out after 3 h at 37°C temperature in presence of different concentrations of compounds. ADP generation was measured using Varioskan multimode microplate spectrophotometer (540 nm excitation and 620 nm emission). […] The background reaction rate was measured in a reaction lacking enzyme or substrate and subtracted from the experimental rates.

The test system of the next assay is SK-BR-3. The experiment in a line: Anti-proliferation MTT assay. In kind it is cell-based. The procedure:
(§1) Cell viabilities were measured by a colorimetric assay using 3-(4, 5-dimethylthiaz-ol-2-yl)-2,5-diphenyltetrazoliumbromide (MTT, Sigma, Ltd.) as described previously. Experiments were carried out in triplicate in a parallel manner for each concentration of target compounds and the results were presented as mean ± SE. Control cells were given only culture media. After incubation for 48 h, absorbance (A) was measured at 570 nm. Survival ratio (%) was calculated using the following equation: survival ratio (%) = (Atreatment/Acontrol) × 100%.
On the technique in general: Formazan colour is commonly taken as a measure of viable cells.

For a further assay, the system named is HepG2. The experiment in a line: Anti-proliferation MTT assay. The assay is classed as cell-based. The procedure: as §1
For a further assay, the system named is MCF-7. The experiment in a line: Anti-proliferation MTT assay. In kind it is cell-based. The procedure:
as §1

Another assay relates to HCT116. Kind of assay: Anti-proliferation MTT assay. In kind it is cell-based. The procedure: as §1
In a further assay the test system is A549. Kind of assay: Anti-proliferation MTT assay. The assay is classed as cell-based. The procedure:
as §1

The next assay relates to MDA-MB-231. Kind of assay: Anti-proliferation MTT assay. In kind it is cell-based. The procedure:
as §1

[3] abbreviates: 40 μM, colorimetric assay for inorganic phosphate.
Where [4] appears, read: colorimetric assay for inorganic phosphate, 40 μM.

T1 sequence (P0DMV8 whole entry): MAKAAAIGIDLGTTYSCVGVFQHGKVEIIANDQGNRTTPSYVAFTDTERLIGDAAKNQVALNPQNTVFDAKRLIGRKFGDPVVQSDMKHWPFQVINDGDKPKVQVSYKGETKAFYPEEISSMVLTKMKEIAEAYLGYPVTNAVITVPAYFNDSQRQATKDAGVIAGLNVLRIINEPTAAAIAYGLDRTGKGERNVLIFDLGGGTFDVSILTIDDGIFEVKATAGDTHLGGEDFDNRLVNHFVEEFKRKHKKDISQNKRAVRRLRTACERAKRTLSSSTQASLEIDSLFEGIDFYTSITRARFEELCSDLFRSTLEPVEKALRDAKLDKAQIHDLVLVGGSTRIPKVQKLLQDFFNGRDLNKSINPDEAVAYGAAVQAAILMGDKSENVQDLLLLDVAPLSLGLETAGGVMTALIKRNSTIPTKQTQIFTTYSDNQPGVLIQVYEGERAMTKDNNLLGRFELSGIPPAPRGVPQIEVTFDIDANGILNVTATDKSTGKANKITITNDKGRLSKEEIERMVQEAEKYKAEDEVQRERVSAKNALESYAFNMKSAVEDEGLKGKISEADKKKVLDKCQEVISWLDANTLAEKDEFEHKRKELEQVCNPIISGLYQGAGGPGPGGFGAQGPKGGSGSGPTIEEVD

As a reminder, the IC50 is the point on the concentration scale where inhibition reaches its midpoint. As to `CC(C)c1cc(C(=O)N2Cc3ccc(CN4CCN(C)CC4)cc3C2)c(O)cc1O` [AT13387], the figures for the IC50 at Hsp70, against Hsp90 [1] and on Hsp90 [2] were 16.3 ± 1.2 µM, 0.37 ± 0.05 µM and 0.34 ± 0.08 µM, respectively. In addition, the “selectivity HSP90 over HSP70” value at Hsp70 was “over 47 times”.

Regarding `CO[C@H]1/C=C\C=C(/C)C(=O)NC2=CC(=O)C(NCCN(C)C)=C(C[C@@H](C)C[C@H](OC)[C@H](O)[C@@H](C)/C=C(\C)[C@@H]1OC(N)=O)C2=O` [Compound 17-DMAG, 17-Dimethylamino-ethylamino-17-demethoxygeldanamycin], the IC50 in the assay with SK-BR-3 (48 h) turned out to be 1.21 µM; with HepG2 (48 h) it was 0.49 µM; in the assay with MCF-7 (48 h), 0.037 µM; in the assay with HCT116 (48 h), 0.26 µM; in the assay on A549 (48 h), 0.057 µM; with MDA-MB-231 (48 h) it was 0.048 µM. Besides, the “Inhibition rate (% in 40 μM)” value on Hsp90 [1] (setting [3]) is listed as 90%.

What is called inhibition is the change of the read-out against control, counted positive when it falls. On to `CN(C)S(=O)(=O)N1CCN(CC(O)COc2ccc3cc(Br)ccc3c2)CC1` (stereo not shown) [Compound S1], for which the IC50 at Hsp70 came to 28.2 ± 2.27 µM; in the assay on SK-BR-3 (Homo sapiens, SK-BR-3, 48 h), 15.8 µM; with HepG2 (Homo sapiens, HepG2, 48 h), 2.27 µM; in the assay with MCF-7 (Homo sapiens, MCF7, 48 h), 3.79 µM; in the assay with HCT116 (Homo sapiens, HCT-116, 48 h), 4.66 µM; in the assay with A549 (Homo sapiens, A549, 48 h), 25.9 µM. Further, the half-maximal inhibitory concentration (IC50) in the assay with MDA-MB-231 (Homo sapiens, MDA-MB-231, 48 h) is 2.27 µM; at Hsp90 [1], 2.44 ± 0.33 µM; at Hsp90 [2], 1.61 µM. The “selectivity HSP90 over HSP70” value at Hsp70 is on record as “over 15 times”. In addition, the inhibition at 40 µM at Hsp90 [1] (setting [3]) was greater than 50%.

For the compound `CCOC(=O)c1c(C)n(CCOc2cccc3ccccc23)c2ccc(O)cc12` [Compound S2], the inhibition at 40 µM at Hsp90 [1] was -10.2%.

Turning to `COc1ccc(CNC(=O)CSc2nc3ccc(N)cc3s2)cc1` [Compound S3], the inhibition at 40 µM at Hsp90 [1] (setting [3]) was -11.6%.

Take `COCCCN1C(=O)C(O)=C(C(=O)c2ccc(OC(C)C)c(C)c2)C1c1cccnc1` (stereo not shown) [Compound S4]: at Hsp90 [1] (setting [3]), the inhibition at 40 µM came to 48.2%. The “Hsp90 inhibition activity (in words)” value at Hsp90 [1] (setting [4]) is given as “moderate”.

On to `CCCOc1ccc(C(=O)C2=C(O)C(=O)N(Cc3cccnc3)C2c2ccccc2)cc1` (stereo not shown) [Compound S5], for which the inhibition at 40 µM on Hsp90 [1] (setting [3]) is -14.5%.

With `CCCCCOc1cccc(C2C(C(=O)c3cccs3)=C(O)C(=O)N2CCN2CCOCC2)c1` (stereo not shown) [Compound S6], on Hsp90 [1] (setting [3]), the inhibition at 40 µM was -7.53%.

On to `O=C(NNC1CC(=O)N(c2ccc(Br)cc2)C1=O)c1cccnc1` (stereo not shown) [Compound S7], for which the inhibition at 40 µM at Hsp90 [1] (setting [3]) was -35.1%.

As for `COc1ccc(-c2csc3ncn(CC(=O)Nc4ccc(C)cc4C)c(=O)c23)cc1OC` [Compound S9], the inhibition at 40 µM on Hsp90 [1] (setting [3]) was -47.8%.

As for `CCOc1ccc(-c2csc3ncn(CC(=O)Nc4cc(C)ccc4C)c(=O)c23)cc1` [Compound S10], the inhibition at 40 µM on Hsp90 [1] (setting [3]) came to 36%.

For the compound `COc1ccc(-c2csc3ncn(CC(=O)NC4CCCCC4)c(=O)c23)cc1OC` [Compound S11], the inhibition at 40 µM at Hsp90 [1] (setting [3]) was 42.8%. The “Hsp90 inhibition activity (in words)” value on Hsp90 [1] (setting [4]) is recorded as “moderate”.

Turning to `CCOC(=O)C1=C(Nc2ccc(OC)cc2)S/C(=C\c2ccc[nH]2)C1=O` [Compound S12], the inhibition at 40 µM on Hsp90 [1] (setting [3]) stood at 12.6%.

On to `Cc1ccc(S(=O)(=O)N2CCN(CC(O)COc3ccc(-c4ccccc4)cc3)CC2)cc1C` (stereo not shown) [Compound S14], for which the inhibition at 40 µM on Hsp90 [1] (setting [3]) stood at 47.5%. The “Hsp90 inhibition activity (in words)” value at Hsp90 [1] (setting [4]) is reported as “moderate”.

On to `Cc1cccc(OCCn2c(SCC(O)CO)nc3ccccc32)c1` (stereo not shown) [Compound S15], for which the inhibition at 40 µM on Hsp90 [1] (setting [3]) came out at 18.9%.

Regarding `COc1cccc(CNc2nc(SC)ncc2CO)c1` [Compound S16], the inhibition at 40 µM on Hsp90 [1] (setting [3]) was -6.22%.

Consider `COCCN1C(=O)C(O)=C(C(=O)c2ccc3c(c2)CC(C)O3)C1c1cccc(OC)c1` (stereo not shown) [Compound S17], for which the inhibition at 40 µM on Hsp90 [1] (setting [3]) is 48.8%. Besides, at Hsp90 [1] (setting [4]), the “Hsp90 inhibition activity (in words)” value is reported as “moderate”.

Source of the values: article PMC3615092, “Identification, Design and Bio-Evaluation of Novel Hsp90 Inhibitors by Ligand-Based Virtual Screening” (PLoS ONE, 2013).
